Measured values: PubChem BioAssay (NCI)
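96-well plates; 48 h exposure; 5 concentrations. Endpoints by linear interpolation between flanking doses. Not reached: highest tested concentration assigned. TGI: total growth inhibition.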

Legend:
Test in all cases: inhibition of tumour cell growth, NCI panel, 48 h
K-562 leukemia = test system: K-562 leukemia
OVCAR-4 ovarian = test system: OVCAR-4 ovarian
SN12C renal = test system: SN12C renal
SK-MEL-5 melanoma = test system: SK-MEL-5 melanoma
SK-MEL-2 melanoma = test system: SK-MEL-2 melanoma
M14 melanoma = test system: M14 melanoma
MCF7 breast = test system: MCF7 breast
NCI-H460 lung = test system: NCI-H460 lung
RPMI-8226 leukemia = test system: RPMI-8226 leukemia
HOP-92 NSCLC = test system: HOP-92 NSCLC
NCI/ADR-RES ovarian = test system: NCI/ADR-RES ovarian
MDA-N = test system: MDA-N
HCC-2998 colon = test system: HCC-2998 colon
CAKI-1 renal = test system: CAKI-1 renal
OVCAR-5 ovarian = test system: OVCAR-5 ovarian
T-47D breast = test system: T-47D breast
MDA-MB-231 breast = test system: MDA-MB-231 breast
UACC-257 melanoma = test system: UACC-257 melanoma
NCI-H522 lung = test system: NCI-H522 lung
PC-3 prostate = test system: PC-3 prostate
HCT-116 colon = test system: HCT-116 colon
SNB-19 CNS = test system: SNB-19 CNS
SF-268 CNS = test system: SF-268 CNS
KM12 colon = test system: KM12 colon
HL-60(TB) leukemia = test system: HL-60(TB) leukemia
SK-MEL-28 melanoma = test system: SK-MEL-28 melanoma
IGROV1 ovarian = test system: IGROV1 ovarian
SNB-75 CNS = test system: SNB-75 CNS
MALME-3M melanoma = test system: MALME-3M melanoma
NCI-H23 lung = test system: NCI-H23 lung
U251 CNS = test system: U251 CNS
UO-31 renal = test system: UO-31 renal
786-0 renal = test system: 786-0 renal
MDA-MB-435 = test system: MDA-MB-435
UACC-62 melanoma = test system: UACC-62 melanoma
EKVX NSCLC = test system: EKVX NSCLC
SK-OV-3 ovarian = test system: SK-OV-3 ovarian
OVCAR-3 ovarian = test system: OVCAR-3 ovarian
LOX IMVI melanoma = test system: LOX IMVI melanoma
SR leukemia = test system: SR leukemia
HCT-15 colon = test system: HCT-15 colon
TK-10 renal = test system: TK-10 renal
A498 renal = test system: A498 renal
OVCAR-8 ovarian = test system: OVCAR-8 ovarian
SF-295 CNS = test system: SF-295 CNS
CCRF-CEM leukemia = test system: CCRF-CEM leukemia
COLO 205 colon = test system: COLO 205 colon
ACHN renal = test system: ACHN renal
HS 578T breast = test system: HS 578T breast
SW-620 colon = test system: SW-620 colon
HT29 colon = test system: HT29 colon
A549 NSCLC = test system: A549 NSCLC
HOP-62 NSCLC = test system: HOP-62 NSCLC
BT-549 breast = test system: BT-549 breast
MOLT-4 leukemia = test system: MOLT-4 leukemia
RXF 393 renal = test system: RXF 393 renal
DU-145 prostate = test system: DU-145 prostate

Q: With `CC(=O)OCC1OC(O/C=C(\CN=[N+]=[N-])C(C)=O)C(OC(C)=O)C(OC(C)=O)C1OC(C)=O` (configuration not stated) as the compound, how does the TGI (K-562 leukemia) read?
A: The TGI was 23.6 µM.

Q: And the TGI (OVCAR-4 ovarian)?
A: Its TGI is 43.1 µM.

Q: And the TGI (SN12C renal)?
A: The TGI was 29.5 µM.

Q: What about the TGI (SK-MEL-5 melanoma) of the same compound?
A: The TGI was 26.2 µM.

Q: And the TGI (SK-MEL-2 melanoma)?
A: Its TGI is 37.2 µM.

Q: And the TGI (M14 melanoma)?
A: Its TGI is 23.1 µM.

Q: And the TGI (MCF7 breast)?
A: The TGI was 28 µM.

Q: What about the TGI (NCI-H460 lung) of the same compound?
A: The TGI was 48.9 µM.

Q: What about the TGI (RPMI-8226 leukemia) of the same compound?
A: The TGI was 5.18 µM.

Q: And the TGI (HOP-92 NSCLC)?
A: Its TGI is 56.6 µM.

Q: And the TGI (NCI/ADR-RES ovarian)?
A: Its TGI is over 100 µM.

Q: What about the TGI (MDA-N) of the same compound?
A: Its TGI is 30 µM.

Q: What about the TGI (HCC-2998 colon) of the same compound?
A: The TGI was 35 µM.

Q: And the TGI (CAKI-1 renal)?
A: Its TGI is 10.1 µM.

Q: And the TGI (OVCAR-5 ovarian)?
A: The TGI was 32.9 µM.

Q: What about the TGI (T-47D breast) of the same compound?
A: Its TGI is 13.4 µM.

Q: And the TGI (MDA-MB-231 breast)?
A: The TGI was 27.7 µM.

Q: What about the TGI (UACC-257 melanoma) of the same compound?
A: Its TGI is 17.1 µM.

Q: What about the TGI (NCI-H522 lung) of the same compound?
A: The TGI was 5.08 µM.

Q: And the TGI (PC-3 prostate)?
A: The TGI was 27.8 µM.

Q: And the TGI (HCT-116 colon)?
A: The TGI was 13.8 µM.

Q: What about the TGI (SNB-19 CNS) of the same compound?
A: Its TGI is 83.8 µM.

Q: And the TGI (SF-268 CNS)?
A: The TGI was 56.9 µM.

Q: What about the TGI (KM12 colon) of the same compound?
A: The TGI was 40.3 µM.

Q: And the TGI (HL-60(TB) leukemia)?
A: The TGI was 5.27 µM.

Q: And the TGI (SK-MEL-28 melanoma)?
A: Its TGI is 89.7 µM.

Q: And the TGI (IGROV1 ovarian)?
A: The TGI was 39.2 µM.

Q: And the TGI (SNB-75 CNS)?
A: The TGI was 33.3 µM.

Q: And the TGI (MALME-3M melanoma)?
A: Its TGI is 10.3 µM.

Q: And the TGI (NCI-H23 lung)?
A: The TGI was 25.6 µM.

Q: And the TGI (U251 CNS)?
A: The TGI was 26.8 µM.

Q: And the TGI (UO-31 renal)?
A: Its TGI is 21.4 µM.

Q: What about the TGI (786-0 renal) of the same compound?
A: The TGI was 18.2 µM.

Q: What about the TGI (MDA-MB-435) of the same compound?
A: The TGI was 26.7 µM.

Q: And the TGI (UACC-62 melanoma)?
A: The TGI was 25.3 µM.

Q: And the TGI (EKVX NSCLC)?
A: Its TGI is 34.7 µM.

Q: What about the TGI (SK-OV-3 ovarian) of the same compound?
A: The TGI was over 100 µM.

Q: What about the TGI (OVCAR-3 ovarian) of the same compound?
A: Its TGI is 28.7 µM.

Q: What about the TGI (LOX IMVI melanoma) of the same compound?
A: Its TGI is 17.1 µM.

Q: What about the TGI (SR leukemia) of the same compound?
A: The TGI was 7.69 µM.

Q: And the TGI (HCT-15 colon)?
A: Its TGI is 18.9 µM.

Q: What about the TGI (TK-10 renal) of the same compound?
A: Its TGI is 19.1 µM.

Q: And the TGI (A498 renal)?
A: The TGI was 47.5 µM.

Q: What about the TGI (OVCAR-8 ovarian) of the same compound?
A: Its TGI is over 100 µM.

Q: What about the TGI (SF-295 CNS) of the same compound?
A: The TGI was over 100 µM.

Q: What about the TGI (CCRF-CEM leukemia) of the same compound?
A: Its TGI is 3.59 µM.

Q: What about the TGI (COLO 205 colon) of the same compound?
A: The TGI was 3.9 µM.

Q: And the TGI (ACHN renal)?
A: Its TGI is 12.4 µM.

Q: And the TGI (HS 578T breast)?
A: The TGI was over 100 µM.

Q: What about the TGI (SW-620 colon) of the same compound?
A: Its TGI is 16.9 µM.

Q: What about the TGI (HT29 colon) of the same compound?
A: Its TGI is 27.2 µM.

Q: And the TGI (A549 NSCLC)?
A: The TGI was 46.2 µM.

Q: What about the TGI (HOP-62 NSCLC) of the same compound?
A: The TGI was 70.7 µM.

Q: And the TGI (BT-549 breast)?
A: Its TGI is 31.2 µM.

Q: And the TGI (MOLT-4 leukemia)?
A: The TGI was 10.5 µM.

Q: Which TGI (K-562 leukemia) does the source give for `CC(=O)/C=C(\O)c1[nH]c(C(=O)O)cc1C1CCN(Cc2ccccc2)C1=O` (configuration not stated) here?
A: The TGI was 95.1 µM.

Q: And the TGI (OVCAR-4 ovarian)?
A: Its TGI is over 100 µM.

Q: And the TGI (SK-MEL-5 melanoma)?
A: Its TGI is 42.9 µM.

Q: What about the TGI (SK-MEL-2 melanoma) of the same compound?
A: The TGI was 54.9 µM.

Q: And the TGI (M14 melanoma)?
A: Its TGI is 29.6 µM.

Q: And the TGI (MCF7 breast)?
A: Its TGI is 65.7 µM.

Q: What about the TGI (NCI-H460 lung) of the same compound?
A: Its TGI is 32.3 µM.

Q: What about the TGI (RPMI-8226 leukemia) of the same compound?
A: The TGI was 49 µM.

Q: And the TGI (HOP-92 NSCLC)?
A: Its TGI is 58.8 µM.

Q: And the TGI (NCI/ADR-RES ovarian)?
A: Its TGI is 28.9 µM.

Q: What about the TGI (MDA-N) of the same compound?
A: The TGI was 33.8 µM.

Q: And the TGI (HCC-2998 colon)?
A: The TGI was 46.4 µM.

Q: And the TGI (CAKI-1 renal)?
A: The TGI was over 100 µM.

Q: And the TGI (OVCAR-5 ovarian)?
A: Its TGI is 80.2 µM.

Q: What about the TGI (T-47D breast) of the same compound?
A: The TGI was 49.8 µM.

Q: And the TGI (MDA-MB-231 breast)?
A: Its TGI is over 100 µM.

Q: What about the TGI (UACC-257 melanoma) of the same compound?
A: The TGI was 53.7 µM.

Q: What about the TGI (NCI-H522 lung) of the same compound?
A: Its TGI is 49.7 µM.

Q: And the TGI (PC-3 prostate)?
A: Its TGI is over 100 µM.

Q: And the TGI (HCT-116 colon)?
A: Its TGI is 61.7 µM.

Q: What about the TGI (RXF 393 renal) of the same compound?
A: Its TGI is 30.2 µM.

Q: What about the TGI (SNB-19 CNS) of the same compound?
A: The TGI was 83.5 µM.

Q: What about the TGI (SF-268 CNS) of the same compound?
A: Its TGI is 49.5 µM.

Q: And the TGI (KM12 colon)?
A: The TGI was over 100 µM.

Q: And the TGI (SK-MEL-28 melanoma)?
A: Its TGI is 43.8 µM.

Q: And the TGI (IGROV1 ovarian)?
A: The TGI was 61.5 µM.

Q: What about the TGI (SNB-75 CNS) of the same compound?
A: The TGI was 63.1 µM.

Q: What about the TGI (MALME-3M melanoma) of the same compound?
A: The TGI was 46.3 µM.

Q: What about the TGI (NCI-H23 lung) of the same compound?
A: The TGI was 35.3 µM.

Q: What about the TGI (U251 CNS) of the same compound?
A: The TGI was over 100 µM.

Q: What about the TGI (UO-31 renal) of the same compound?
A: The TGI was 38.5 µM.

Q: And the TGI (786-0 renal)?
A: The TGI was 47.6 µM.

Q: And the TGI (MDA-MB-435)?
A: Its TGI is over 100 µM.

Q: And the TGI (UACC-62 melanoma)?
A: The TGI was 41.7 µM.

Q: And the TGI (EKVX NSCLC)?
A: The TGI was 60.6 µM.

Q: What about the TGI (SK-OV-3 ovarian) of the same compound?
A: Its TGI is 57.7 µM.

Q: What about the TGI (OVCAR-3 ovarian) of the same compound?
A: The TGI was 54.9 µM.

Q: What about the TGI (HCT-15 colon) of the same compound?
A: The TGI was 38.4 µM.

Q: What about the TGI (TK-10 renal) of the same compound?
A: The TGI was over 100 µM.

Q: What about the TGI (A498 renal) of the same compound?
A: The TGI was over 100 µM.

Q: And the TGI (OVCAR-8 ovarian)?
A: The TGI was 36.4 µM.

Q: What about the TGI (SF-295 CNS) of the same compound?
A: The TGI was 48.7 µM.

Q: What about the TGI (COLO 205 colon) of the same compound?
A: Its TGI is 42.9 µM.

Q: What about the TGI (DU-145 prostate) of the same compound?
A: The TGI was 59.2 µM.

Q: What about the TGI (ACHN renal) of the same compound?
A: Its TGI is over 100 µM.

Q: And the TGI (HS 578T breast)?
A: The TGI was over 100 µM.

Q: What about the TGI (SW-620 colon) of the same compound?
A: Its TGI is over 100 µM.

Q: And the TGI (HT29 colon)?
A: The TGI was 89 µM.

Q: What about the TGI (A549 NSCLC) of the same compound?
A: The TGI was 81.4 µM.

Q: What about the TGI (HOP-62 NSCLC) of the same compound?
A: The TGI was 32.8 µM.

Q: And the TGI (BT-549 breast)?
A: The TGI was 58.1 µM.

Q: And the TGI (MOLT-4 leukemia)?
A: The TGI was 53.9 µM.
